Measured values published in patent US20080038359A1, “Stable Nanoparticle Formulations” (SANOFI-AVENTIS U.S. LLC, priority 2005, published 2008).

Experiments:
[1] = Solubility of Compound B in soy oil, estimated visually; format: physicochemical; conditions: oil or lipid, thermodynamic from solid; visual estimate by gradual addition of soy oil
Experimental: The solubility of Compound B in soy oil was initially estimated visually by gradual addition of soy oil to a weighed amount of the drug substance until the oil was almost clear (visually). An estimate of the drug substance in oil was calculated from the total amount of oil added.

[2] = generally known; cited from earlier work

Row | Compound | solubility [1] [µg/mL] | solubility in oils [2]
1 | Cn1c2ccc(F)cc2c2c(C(=O)N3CCCC3)cn(-c3ccccc3)c(=O)c21 [Compound B, 6-Fluoro-9-methyl-2-phenyl-4-(pyrrolidin-1-ylcarbonyl)-2,9-dihydro-1H-pyrido[3,4-b]indol-1-one] | < 1000 | 
2 | CCCCc1oc2ccc(C(=O)OC(C)C)cc2c1C(=O)c1ccc(CCCN(CCCC)CCCC)cc1.O=C(O)/C=C/C(=O)O [Compound C, Isopropyl 2-butyl-3-[4-[3-(dibutylamino)propyl]benzoyl]-1-benzofuran-5-carboxylate fumarate] |  | low solubility
